According to ChEMBL document CHEMBL5126510, “UCH-L3 structure and function: Insights about a promising drug target” (Eur J Med Chem, 2022):
Each block holds one compound with its values, some of them ahead of it.

How the values were obtained:
[1] = target: T1, Ubiquitin carboxyl-terminal hydrolase isozyme L3 (Homo sapiens) (UniProt P15374); test: Inhibition of UCHL3 (unknown origin) using Ub-AMC as substrate at 0.1 uM preincubated for 60 mins followed by substrate addition by fluorescence assay relative to control
T1 sequence (whole entry): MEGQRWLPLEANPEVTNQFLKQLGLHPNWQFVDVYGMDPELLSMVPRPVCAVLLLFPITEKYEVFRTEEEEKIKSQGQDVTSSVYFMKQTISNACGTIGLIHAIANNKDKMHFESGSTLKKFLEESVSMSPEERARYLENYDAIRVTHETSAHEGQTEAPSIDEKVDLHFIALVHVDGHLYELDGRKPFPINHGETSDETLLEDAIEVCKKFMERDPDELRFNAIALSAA

[2] = target: T2, Ubiquitin carboxyl-terminal hydrolase isozyme L3 (Homo sapiens, UniProt P15374); test: Inhibition of UCHL3 (unknown origin) using ubiquitin-AMC as substrate by fluorescence assay
T2 sequence (P15374 whole entry): T1 sequence (whole entry)

[3] = target: T2, Ubiquitin carboxyl-terminal hydrolase isozyme L3; test: Inhibition of UCHL3 (unknown origin) assessed as reduction in RAD51 deubiquitination incubated for 4 hrs
[4] = target: T2, Ubiquitin carboxyl-terminal hydrolase isozyme L3; test: Inhibition of recombinant human UCHL3 expressed in baculovirus infected Sf9 cells using ubiquitin-AMC as substrate preincubated for 30 mins followed by substrate addition by fluorescence spectrophotometric assay
[5] = target: T3, Ubiquitin carboxyl-terminal hydrolase isozyme L1 (Homo sapiens, UniProt P09936); test: Inhibition of UCHL1 (unknown origin) using Ub-Rho as substrate preincubated for 30 mins followed by substrate addition
T3 sequence (P09936 whole entry): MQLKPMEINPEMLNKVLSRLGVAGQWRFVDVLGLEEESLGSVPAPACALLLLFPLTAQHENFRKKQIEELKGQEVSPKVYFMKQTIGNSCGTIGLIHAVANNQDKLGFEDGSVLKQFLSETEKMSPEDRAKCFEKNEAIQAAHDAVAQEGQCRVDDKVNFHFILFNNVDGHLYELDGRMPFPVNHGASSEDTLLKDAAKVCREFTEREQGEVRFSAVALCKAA

[6] = target: T2, Ubiquitin carboxyl-terminal hydrolase isozyme L3; test: Inhibition of UCHL3 (unknown origin) incubated for 20 mins by fluorescence assay
[7] = target: T2, Ubiquitin carboxyl-terminal hydrolase isozyme L3; test: Inhibition of UCHL3 (unknown origin)
[8] = target: T2, Ubiquitin carboxyl-terminal hydrolase isozyme L3; test: Inhibition of UCHL3 (unknown origin) using Ub-AMC as substrate preincubated for 30 mins followed by substrate addition by fluorescence assay
[9] = target: T3, Ubiquitin carboxyl-terminal hydrolase isozyme L1; test: Inhibition of UCHL1 (unknown origin) using Ub-Rho-morpholine as substrate preincubated for 30 mins followed by substrate addition by fluorescence based assay

- IC50 [2]: 2.16 µM
SMILES: O=C1c2ccccc2C(=O)c2oc(-c3ccc(F)cc3)nc21

- IC50 [3]: 0.05 µM
SMILES: CCCCCCCCCCCCCCCCCCOP(=O)([O-])OC1CC[N+](C)(C)CC1 [PERIFOSINE]

- IC50 [4]: 47 µM
SMILES: CCCCc1ccc(-c2nnc(C)n2-c2ccc(C(C)C)cc2)cc1

- IC50 [6]: 5 µM
SMILES: COC(=O)c1cc(-c2ccc(OC)c(OC)c2O)c(N)c(-c2ccc3c(n2)C(=O)C(N)=C(OC)C3=O)n1

- IC50 [8]: 10 µM
SMILES: CCCCC[C@H](O)/C=C/[C@H]1C(=O)C=C[C@@H]1C/C=C\CCCC(=O)O

Continued, compound first:

SMILES: O=C1C(Cc2ccc([N+](=O)[O-])cc2)CNCC1Cc1ccc([N+](=O)[O-])cc1 (stereo not given)
- inhibition [1]: 60%

SMILES: N#CN1CCCC1C(=O)n1ccc2c(-c3cn[nH]c3C(F)(F)F)cccc21 (stereo not given)
- IC50 [5]: 0.67 µM

SMILES: C#CCCn1cc(-c2cccc3c2ccn3C(=O)C2CCCN2C#N)c(C(F)(F)F)n1 (stereo not given)
- IC50 [5]: 6.4 µM

SMILES: CC(=O)O/N=C1/C(=O)N(Cc2cc(Cl)ccc2Cl)c2ccc(Cl)cc21
- IC50 [7]: 25 µM

SMILES: N#CN1CCC(C(=O)Nc2ncc(N3CCOCC3)s2)C1 (stereo not given)
- IC50 [9]: 0.23 µM
